From patent US20260373119A1, “NOVEL COMPOUND, AND COMPOSITION FOR PREVENTING OR TREATING HER2-POSITIVE CANCER, COMPRISING SAME” (EWHA UNIVERSITY - INDUSTRY COLLABORATION FOUNDATION, priority 2022, published 2026)

Tests used:
Assay type in all cases: cell-based
[1] = tested on: NCI-N87 (HER2-positive gastric cancer cell line); experiment: antiproliferative effect, NCI-N87; conditions: Homo sapiens, NCI-N87; 72 hours; HER2-positive
Description: (§1) The antiproliferative effects were measured after treating Compounds 1 to 22 for 72 hours on HCT15 (HER2-positive colorectal cancer cell line), NCI-N87 (HER2-positive gastric cancer cell line), T47D (HER2-negative breast cancer cell line), and HeLa (HER2-negative cervical cancer cell line). As a result, strong antiproliferative effects were generally observed in the NCI-N87 cell line (Table 2).
(§2) The antiproliferative effects of the candidate compound, resulting from HER2 inhibition, were evaluated. Specifically, to confirm the anticancer effects of the candidate compound, cancer cells were seeded at a density of 10^4 cells/well in a 96-well cell culture plate for 20 hours. The cells were starved in serum-free media for 4 hours, followed by replacement with media containing the compound at specified concentrations. The cells were then incubated for 72 hours under conditions of 5% CO2 at 37 °C. Cell viability was determined by adding 5 μL of EZ-CytoX to each well and measuring absorbance at 450 nm. The measurements were performed using an ELISA Microplate Reader (VersaMax, Molecular Devices).

[2] = tested on: HCT15 (HER2-positive colorectal cancer cell line); experiment: antiproliferative effect, HCT15; conditions: Homo sapiens, HCT-15, 72 hours
Description: as §1, §2

[3] = tested on: T47D (HER2-negative breast cancer cell line); experiment: antiproliferative effect, T47D; conditions: Homo sapiens, 72 hours
Description: as §1, §2

[4] = tested on: HeLa (HER2-negative cervical cancer cell line); experiment: antiproliferative effect, HeLa; conditions: Homo sapiens, 72 hours
Description: as §1, §2

[5] = target: T1, ELF3-MED23 protein-protein interaction (Homo sapiens, UniProt Q9ULK4); experiment: SEAP reporter assay, ELF3-MED23 PPI inhibition (293T kidney cells); conditions: HEK-293T; 10 μM
T1 construct: followed by the addition of either the candidate compound or MED23 protein constructs; endogenous in cells; host or cells: 293T kidney cells (MED23 endogenous; GAL4-ELF3 transfected)
T1 sequence (Q9ULK4 1-1368): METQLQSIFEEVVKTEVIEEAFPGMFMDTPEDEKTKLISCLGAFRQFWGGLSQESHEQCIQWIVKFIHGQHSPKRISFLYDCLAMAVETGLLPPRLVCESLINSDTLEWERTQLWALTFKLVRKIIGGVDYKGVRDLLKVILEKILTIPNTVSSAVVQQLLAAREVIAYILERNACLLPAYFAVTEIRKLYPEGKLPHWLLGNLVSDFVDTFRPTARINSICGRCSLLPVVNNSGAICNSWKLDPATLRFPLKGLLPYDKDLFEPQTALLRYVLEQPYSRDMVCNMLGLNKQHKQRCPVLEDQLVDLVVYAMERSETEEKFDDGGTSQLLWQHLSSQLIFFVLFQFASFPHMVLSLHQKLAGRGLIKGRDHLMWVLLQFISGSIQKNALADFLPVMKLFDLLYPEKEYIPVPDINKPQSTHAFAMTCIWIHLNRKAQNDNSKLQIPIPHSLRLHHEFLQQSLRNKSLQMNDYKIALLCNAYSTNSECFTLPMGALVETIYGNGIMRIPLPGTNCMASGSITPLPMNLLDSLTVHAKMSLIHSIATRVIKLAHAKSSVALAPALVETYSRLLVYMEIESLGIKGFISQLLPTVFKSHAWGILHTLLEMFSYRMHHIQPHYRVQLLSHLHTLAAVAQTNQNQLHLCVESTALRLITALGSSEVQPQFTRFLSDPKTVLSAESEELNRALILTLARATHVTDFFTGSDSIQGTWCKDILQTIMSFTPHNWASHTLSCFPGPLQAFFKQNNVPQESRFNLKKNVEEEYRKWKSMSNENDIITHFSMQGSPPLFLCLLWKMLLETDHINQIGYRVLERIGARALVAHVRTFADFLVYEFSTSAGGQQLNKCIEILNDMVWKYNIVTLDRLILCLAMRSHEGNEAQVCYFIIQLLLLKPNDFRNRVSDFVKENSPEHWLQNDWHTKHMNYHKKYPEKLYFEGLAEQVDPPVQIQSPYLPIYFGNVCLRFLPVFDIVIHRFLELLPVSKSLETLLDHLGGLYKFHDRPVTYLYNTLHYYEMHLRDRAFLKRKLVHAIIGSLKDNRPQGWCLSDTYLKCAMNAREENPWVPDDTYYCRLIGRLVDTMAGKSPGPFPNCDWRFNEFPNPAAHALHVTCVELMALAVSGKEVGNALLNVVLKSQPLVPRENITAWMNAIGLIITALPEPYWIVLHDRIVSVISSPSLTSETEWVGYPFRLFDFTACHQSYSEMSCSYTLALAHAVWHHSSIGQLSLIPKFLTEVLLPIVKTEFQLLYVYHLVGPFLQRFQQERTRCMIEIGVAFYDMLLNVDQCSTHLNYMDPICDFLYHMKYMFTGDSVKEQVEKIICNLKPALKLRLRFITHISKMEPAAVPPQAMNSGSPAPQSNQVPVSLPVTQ
Description: To verify whether the D400 and H449 residues play a critical role in the ELF3-MED23 protein-protein interaction, a SEAP assay was performed. Specifically, 293T kidney cells were seeded at a density of 5×10^3 cells/well in a 96-well microplate (SPL, Korea) and cultured overnight. Subsequently, the cells were co-transfected with 100 ng of each plasmid using transfection-optimized medium (Welgene, Korea). The plasmids used included the SEAP reporter gene (pG5IL2SX) and GAL4-ELF3 expression vector (pBJ GAL4-ELF3). For transfection, the cells were incubated with WelFectQ (Welgene, Korea) for 3 hours, followed by the addition of either the candidate compound or MED23 protein constructs (pcDNA MED23^WT, K397A, D400A, H449G, and D400A/H449G). The treated cells were incubated for 12 hours. The candidate compound was added in an incubator at 5% CO2 and 37 °C, and the plate was incubated at 65 °C for 3 hours to inactivate all enzymes except SEAP (Secreted Alkaline Phosphatase). A mixture comprising 100 μL of substrate solution prepared with 1.19 μL of 0.1 M 4-methylumbelliferyl phosphate (Sigma, USA), 25 μL of inactivated medium, and 75 μL of double-distilled water was added, followed by the addition of 98.81 μL of 2 M diethanolamine (pH 10, Sigma, USA). The plate was incubated overnight at 37 °C. Subsequently, the fluorescence intensity was measured using a fluorometer (SPECTRAmax […], Molecular Devices, USA) at an excitation wavelength of 360 nm and an emission wavelength of 440 nm.
To further elaborate on the above findings, small molecule compounds that could affect the ELF3-MED23 PPI were designed and synthesized. Specifically, non-essential side chains were removed from gefitnib, and compounds were designed to include both hydrogen bond donors and acceptors for the D400 and H449 residues of MED23, respectively (FIG. 4A). Specifically, chalcones and pyrazolines were selected as core scaffolds, and 25 compounds (11 chalcones and 14 pyrazoline-based compounds) were prepared. The ELF3-MED23 PPI inhibitory activity of all prepared compounds was measured using a SEAP assay.

Row | Compound | IC50 [1] [µM] | IC50 [2] [µM] | IC50 [3] [µM] | IC50 [4] [µM] | inhibition at 10 µM [5] [%]
1 | O=C(/C=C/c1ccco1)c1cccc(O)c1 [Compound 1, 3-Furan-2-yl-1-(3-hydroxyphenyl)-propenone] | 13.5 ± 0.29 | 29.66 ± 0.14 | 8.48 ± 0.02 | 19.5 ± 0.04 | 86
2 | COc1ccc(/C=C/C(=O)c2cccc(O)c2)cc1 [Compound 2, 1-(3-Hydroxyphenyl)-3-(4-methoxyphenyl)-propenone] | 10.7 ± 0.31 | 8.51 ± 0.01 | 18.9 ± 0.2 | 9.85 ± 0.37 | 41
3 | COc1ccc(/C=C/C(=O)c2cccc(O)c2)c2ccccc12 [Compound 3, 1-(3-Hydroxyphenyl)-3-(4-methoxynaphthalen-1-yl)-propenone] | 3.45 ± 0.05 | 7.64 ± 0.09 | 1.21 ± 0.02 | 9.73 ± 0.04 | 70
4 | O=C(/C=C/c1ccc(Cl)cc1)c1cccc(O)c1 [Compound 4, 3-(4-Chlorophenyl)-1-(3-hydroxyphenyl)-propenone] | 4.82 ± 0.1 | 12 ± 0.17 | 17.57 ± 0.13 | 25.64 ± 0.09 | 80
5 | O=C(/C=C/c1ccc(O)cc1)c1cccc(O)c1 [Compound 5, 3-(4-Hydroxyphenyl)-1-(3-hydroxyphenyl)-propenone] | 17.82 ± 0.17 | 8.97 ± 0.17 | 9.04 ± 0.07 | 30.02 ± 0.18 | 60
6 | COc1ccc(/C=C/C(=O)c2ccccc2O)cc1 [Compound 6, 1-(2-Hydroxyphenyl)-3-(4-methoxyphenyl)-propenone] | 44.9 ± 0.8 | > 50 | > 50 | > 50 | 90
7 | COc1ccc(/C=C/C(=O)c2ccccc2O)c2ccccc12 [Compound 7, 1-(2-Hydroxyphenyl)-3-(4-methoxynaphthalen-1-yl)-propenone] | 11.4 ± 0.12 | 14.18 ± 0.05 | 15.56 ± 0.15 | 16.13 ± 0.08 | 80
8 | O=C(/C=C/c1ccco1)c1ccccc1O [Compound 8, 3-Furan-2-yl-1-(2-hydroxyphenyl)-propenone] | > 50 | > 50 | > 50 | 42.19 ± 0.01 | 50
9 | O=C(/C=C/c1ccc(O)cc1)c1ccccc1O [Compound 9, 3-(4-Hydroxyphenyl)-1-(2-hydroxyphenyl)-propenone] | > 50 | > 50 | 27.89 ± 0.06 | > 50 | 50
10 | O=C(/C=C/c1ccc(Cl)cc1)c1ccccc1O [Compound 10, 3-(4-Chlorophenyl)-1-(2-hydroxyphenyl)-propenone] | 14.38 ± 0.06 | 14.36 ± 0.12 | 8.96 ± 0.02 | 5.54 ± 0.21 | 80
11 | O=C(/C=C/c1cccs1)c1ccccc1O [Compound 11, 1-(2-Hydroxyphenyl)-3-thiophen-2-yl-propenone] | 47.76 ± 0.22 | > 50 | > 50 | 44.31 ± 0.11 | 50
12 | CC(=O)N1N=C(c2cccc(O)c2)CC1c1ccco1 (centres unmarked) [Compound 12, 1-[5-Furan-2-yl-3-(3-hydroxyphenyl)-4,5-dihydropyrazol-1-yl]-ethanone] | > 50 | > 50 | > 50 | > 50 | 58
13 | COc1ccc(C2CC(c3cccc(O)c3)=NN2C(C)=O)cc1 (centres unmarked) [Compound 13, 1-[3-(3-Hydroxyphenyl)-5-(4-methoxyphenyl)-4,5-dihydropyrazol-1-yl]-ethanone] | > 50 | > 50 | > 50 | > 50 | 58
14 | COc1ccc(C2CC(c3cccc(O)c3)=NN2C(C)=O)c2ccccc12 (centres unmarked) [Compound 14, 1-[3-(3-Hydroxyphenyl)-5-(4-methoxynaphthalen-1-yl)-4,5-dihydropyrazol-1-yl]-ethanone] | 42.4 ± 0.86 | 19.5 ± 0.41 | 5.57 ± 0.26 | 0.69 | 14
15 | CC(=O)N1N=C(c2cccc(O)c2)CC1c1ccc(O)cc1 (centres unmarked) [Compound 16, 1-[5-(4-Hydroxyphenyl)-3-(3-hydroxyphenyl)-4,5-dihydropyrazol-1-yl]-ethanone] | > 50 | > 50 | > 50 | > 50 | 37
16 | CC(=O)N1N=C(c2ccccc2O)CC1c1ccco1 (centres unmarked) [Compound 17, 1-[5-Furan-2-yl-3-(2-hydroxyphenyl)-4,5-dihydropyrazol-1-yl]-ethanone] | > 50 | > 50 | > 50 | > 50 | 23
17 | CCC(=O)N1N=C(c2cccc(O)c2)CC1c1ccc(OC)cc1 (centres unmarked) [Compound 23, 1-[3-(3-Hydroxyphenyl)-5-(4-methoxyphenyl)-4,5-dihydropyrazol-1-yl]-propan-1-one] |  |  |  |  | 87
18 | CCC(=O)N1N=C(c2cccc(O)c2)CC1c1cccs1 (centres unmarked) [Compound 24, 1-[3-(3-Hydroxyphenyl)-5-thiophen-2-yl-4,5-dihydropyrazol-1-yl]-propan-1-one] |  |  |  |  | 34
19 | CCC(=O)N1N=C(c2cccc(O)c2)CC1c1ccc(Cl)cc1 (centres unmarked) [Compound 25, 1-[5-(4-Chlorophenyl)-3-(3-hydroxyphenyl)-4,5-dihydropyrazol-1-yl]-propan-1-one] |  |  |  |  | 42
